Measured values: PMC5065099 (Chemical biology & drug design, 2016)
Like-named read-outs stand apart in the source and are kept apart here.

Experiments:
AQP1 [1] = molecular target: T1, AQP1 (Homo sapiens, UniProt P29972); type: biochemical
T1 sequence (P29972 1-269): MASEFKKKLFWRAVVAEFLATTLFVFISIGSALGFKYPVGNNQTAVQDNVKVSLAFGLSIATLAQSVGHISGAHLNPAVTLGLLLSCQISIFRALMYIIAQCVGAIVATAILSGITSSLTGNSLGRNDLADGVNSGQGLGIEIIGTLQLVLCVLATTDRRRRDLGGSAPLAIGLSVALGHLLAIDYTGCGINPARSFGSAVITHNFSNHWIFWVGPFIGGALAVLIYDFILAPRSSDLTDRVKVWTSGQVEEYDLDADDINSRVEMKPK

AQP1 [2] = conditions: Xenopus oocytes; cited from earlier work

Structure (SMILES)	reduction in water transport (inhibitory action) (AQP1 [1])	inhibition of AQP1 water transport (AQP1 [2])	reduction in water transport (inhibitory action) (AQP1 [1]; hypotonic shock, compounds at final 75 μM, HgCl2 50 μM)
CC[N+](CC)(CC)CC [TEA, tetraethylammonium]	ineffective	no inhibition	
[Cl][Hg][Cl] [HgCl2, mercuric chloride]			highly sensitive
CC(=O)Nc1nnc(S(N)(=O)=O)s1 [acetazolamide]		no inhibition	
